Laboratory results as given in ChEMBL document CHEMBL1201862, “PubChem BioAssay data set” (2004).
Activity calls are given as the source filed them.

What was measured:
[1] = molecular target: 5-hydroxytryptamine receptor 2A (Mus musculus, UniProt P35363); type: functional, cell-based;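 further: CHO-K1 cells with tagged receptor and beta-arrestin; agonist potency measured as compound-induced activation of the receptor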
[2] = molecular target: SWI/SNF-related matrix-associated actin-dependent regulator of chromatin subfamily A member 2 (Homo sapiens, UniProt P51531); assay: Luminescence-based cell-based high throughput dose response assay to identify activators of the function of SWI/SNF related, matrix associated, actin dependent regulator of chromatin, subfamily a, member 2 (SMARCA2, BRM).; type: functional
SWI/SNF-related matrix-associated actin-dependent regulator of chromatin subfamily A member 2, sequence (P51531 whole entry): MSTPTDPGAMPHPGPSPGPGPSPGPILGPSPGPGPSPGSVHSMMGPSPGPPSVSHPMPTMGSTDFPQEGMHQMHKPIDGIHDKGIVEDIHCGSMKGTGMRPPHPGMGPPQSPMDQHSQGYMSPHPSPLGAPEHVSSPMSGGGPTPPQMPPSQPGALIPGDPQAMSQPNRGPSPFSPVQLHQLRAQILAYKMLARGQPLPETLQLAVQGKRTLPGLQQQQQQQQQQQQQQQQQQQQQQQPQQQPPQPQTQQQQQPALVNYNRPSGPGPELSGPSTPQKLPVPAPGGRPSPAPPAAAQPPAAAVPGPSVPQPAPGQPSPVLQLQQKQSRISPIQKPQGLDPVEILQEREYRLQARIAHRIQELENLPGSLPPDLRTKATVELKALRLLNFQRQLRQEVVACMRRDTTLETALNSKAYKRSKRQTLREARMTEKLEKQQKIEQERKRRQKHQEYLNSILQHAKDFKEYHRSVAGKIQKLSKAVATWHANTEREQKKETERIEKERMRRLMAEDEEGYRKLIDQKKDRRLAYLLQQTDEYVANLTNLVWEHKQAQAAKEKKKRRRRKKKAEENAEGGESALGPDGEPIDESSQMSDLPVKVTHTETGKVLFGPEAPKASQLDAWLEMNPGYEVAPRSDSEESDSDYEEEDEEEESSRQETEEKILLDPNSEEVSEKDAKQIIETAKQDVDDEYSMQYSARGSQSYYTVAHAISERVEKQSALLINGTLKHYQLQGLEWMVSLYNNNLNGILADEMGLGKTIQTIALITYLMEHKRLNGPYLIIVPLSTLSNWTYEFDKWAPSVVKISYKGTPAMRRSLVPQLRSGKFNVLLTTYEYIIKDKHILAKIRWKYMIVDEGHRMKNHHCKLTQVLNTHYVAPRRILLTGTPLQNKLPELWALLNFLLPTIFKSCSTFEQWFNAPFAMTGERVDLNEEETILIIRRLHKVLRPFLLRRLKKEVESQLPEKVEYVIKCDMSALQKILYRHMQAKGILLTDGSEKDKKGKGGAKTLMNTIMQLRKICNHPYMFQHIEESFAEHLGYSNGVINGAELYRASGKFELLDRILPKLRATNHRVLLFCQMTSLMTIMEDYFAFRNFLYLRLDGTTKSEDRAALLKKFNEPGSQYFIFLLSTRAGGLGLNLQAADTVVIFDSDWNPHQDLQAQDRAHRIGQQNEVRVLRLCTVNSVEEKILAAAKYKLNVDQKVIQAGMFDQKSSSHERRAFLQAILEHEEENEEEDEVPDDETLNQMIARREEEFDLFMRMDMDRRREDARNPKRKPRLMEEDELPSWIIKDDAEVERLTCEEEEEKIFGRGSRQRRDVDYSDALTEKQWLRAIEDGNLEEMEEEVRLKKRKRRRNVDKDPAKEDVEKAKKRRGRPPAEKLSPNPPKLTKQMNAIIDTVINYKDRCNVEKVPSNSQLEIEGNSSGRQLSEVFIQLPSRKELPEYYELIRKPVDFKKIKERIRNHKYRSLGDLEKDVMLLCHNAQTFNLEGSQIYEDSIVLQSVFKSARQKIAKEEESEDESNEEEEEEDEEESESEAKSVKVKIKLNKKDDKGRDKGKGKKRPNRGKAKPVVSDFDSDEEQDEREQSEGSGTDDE

HEK293 [3] = assay: cells; type: functional, cell-based; settings: Homo sapiens
Mu-type opioid receptor = Mu-type opioid receptor (Homo sapiens, UniProt P35372); type: functional, cell-based;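 further: U2OS cells with beta-arrestin recruitment to OPRM1 by beta-gal complementation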
[4] = molecular target: T1, Oxysterols receptor LXR-beta (Homo sapiens, UniProt P55055); type: functional, cell-based;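 further: agonist activity at LXR measured by a cell-based luminescence readout across a dose range, run as a counterscreen for daf-12 agonists; HEK293 cells with Gal4-LXR fusion and GAL4-driven luciferase reporter; potency for activation of Gal4-LXR reporter so compounds are agonists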
T1 sequence (P55055 whole entry): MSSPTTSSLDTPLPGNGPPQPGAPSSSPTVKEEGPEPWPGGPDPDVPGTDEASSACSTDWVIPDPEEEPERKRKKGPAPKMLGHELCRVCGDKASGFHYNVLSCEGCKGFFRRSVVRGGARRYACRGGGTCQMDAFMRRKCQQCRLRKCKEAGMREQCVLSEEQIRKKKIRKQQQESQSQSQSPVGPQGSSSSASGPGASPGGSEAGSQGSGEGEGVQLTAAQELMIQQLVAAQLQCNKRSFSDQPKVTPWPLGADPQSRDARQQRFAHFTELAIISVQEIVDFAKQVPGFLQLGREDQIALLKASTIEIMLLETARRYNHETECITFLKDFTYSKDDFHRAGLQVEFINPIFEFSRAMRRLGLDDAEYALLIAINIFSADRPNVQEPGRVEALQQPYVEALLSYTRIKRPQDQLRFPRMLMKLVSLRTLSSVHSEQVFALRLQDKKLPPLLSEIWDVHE

[5] = molecular target: T2, Nuclear receptor subfamily 0 group B member 1 (Homo sapiens, UniProt P51843); assay: Luminescence-based cell-based high throughput dose response assay for inhibitors of the orphan nuclear receptor subfamily 0, group B, member 1 (DAX1; NR0B1). [Related pubchem assays (depositor defined):AID504766, AID504790]; type: functional
T2 sequence (P51843 whole entry): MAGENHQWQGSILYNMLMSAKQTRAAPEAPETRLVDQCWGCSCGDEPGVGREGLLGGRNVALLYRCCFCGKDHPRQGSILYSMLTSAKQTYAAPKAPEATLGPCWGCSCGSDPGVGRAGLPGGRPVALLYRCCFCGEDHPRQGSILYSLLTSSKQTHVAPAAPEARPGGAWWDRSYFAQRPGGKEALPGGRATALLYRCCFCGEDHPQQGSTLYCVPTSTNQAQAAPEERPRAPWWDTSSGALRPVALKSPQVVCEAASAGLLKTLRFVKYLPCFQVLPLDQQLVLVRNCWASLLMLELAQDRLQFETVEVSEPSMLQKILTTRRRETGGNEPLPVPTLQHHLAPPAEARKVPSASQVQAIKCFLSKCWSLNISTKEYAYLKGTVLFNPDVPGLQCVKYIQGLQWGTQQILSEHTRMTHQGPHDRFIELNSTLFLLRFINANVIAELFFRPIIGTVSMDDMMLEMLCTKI

[6] = molecular target: Cyclin-dependent kinase 5/CDK5 activator 1 (Homo sapiens, UniProt Q00535); assay: CDK5/p35 kinase inhibitors, dose response, biochemical, cherry-picked samples, set 2 (AID 504545)
Cyclin-dependent kinase 5/CDK5 activator 1, sequence (Q00535 whole entry): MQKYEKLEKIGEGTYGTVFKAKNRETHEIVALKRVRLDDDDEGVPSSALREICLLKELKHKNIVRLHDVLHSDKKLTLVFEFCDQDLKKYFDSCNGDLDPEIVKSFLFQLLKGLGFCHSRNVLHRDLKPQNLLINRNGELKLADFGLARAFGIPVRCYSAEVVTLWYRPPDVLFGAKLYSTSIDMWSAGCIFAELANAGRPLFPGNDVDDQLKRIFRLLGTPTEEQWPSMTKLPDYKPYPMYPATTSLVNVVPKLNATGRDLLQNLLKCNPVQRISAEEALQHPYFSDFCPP
Cyclin-dependent kinase 5/CDK5 activator 1, sequence (Q15078 whole entry, further chain): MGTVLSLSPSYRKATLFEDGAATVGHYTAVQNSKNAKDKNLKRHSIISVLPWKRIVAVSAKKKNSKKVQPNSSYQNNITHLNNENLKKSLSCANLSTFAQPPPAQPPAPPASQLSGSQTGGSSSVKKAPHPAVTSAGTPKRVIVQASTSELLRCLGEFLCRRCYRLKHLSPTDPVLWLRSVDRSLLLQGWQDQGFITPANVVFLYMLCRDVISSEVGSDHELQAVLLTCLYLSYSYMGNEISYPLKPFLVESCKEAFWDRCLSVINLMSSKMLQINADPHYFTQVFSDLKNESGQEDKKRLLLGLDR

[7] = Counterscreen for activators of the function of SWI/SNF related, matrix associated, actin dependent regulator of chromatin, subfamily a, member 2 (SMARCA2, BRM): Luminescence-based cell-based high throughput dose response assay to identify non-selective compounds using the VP16 reporter assay.; type: functional
[8] = molecular target: Dual specificity tyrosine-phosphorylation-regulated kinase 1A (Rattus norvegicus, UniProt Q63470); type: biochemical, Homo sapiens
[9] = molecular target: Neurotensin receptor type 1 (Homo sapiens, UniProt P30989); type: functional;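 further: Image-based confirmatory dose-response assay measuring agonist activity at NTR1; NTR1-expressing U2OS osteosarcoma cells imaged for beta-arrestin GFP spot formation; agonist potency where compounds increase beta-arrestin recruitment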
Tumor necrosis factor = Tumor necrosis factor (Homo sapiens, UniProt P01375); assay: TNFa-triggered NF-kB activation inhibitors, SAR follow-up, cell-based, revised (AID 2337); type: functional
Tumor necrosis factor, sequence (P01375 whole entry): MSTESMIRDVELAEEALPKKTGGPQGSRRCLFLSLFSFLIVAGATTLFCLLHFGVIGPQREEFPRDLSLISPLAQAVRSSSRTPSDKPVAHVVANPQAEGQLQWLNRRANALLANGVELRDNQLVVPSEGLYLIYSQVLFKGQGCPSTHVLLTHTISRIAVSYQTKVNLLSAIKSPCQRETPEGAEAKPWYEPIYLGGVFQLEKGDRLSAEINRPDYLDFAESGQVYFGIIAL

[10] = test system: Streptococcus sp. 'group A'; assay: growth inhibition of control SK(-) GAS strain, dose response, counter-screen for streptokinase expression inhibitor project, luminescence, kanamycin, BacTiterGlo, confirmation (AID 1900); type: functional, organism-based; settings: read-out: EC50
HEK293 [11] = assay: cells; settings: Homo sapiens
[12] = molecular target: Nucleotide-binding oligomerization domain-containing protein 2 (Homo sapiens, UniProt Q9HC29); assay: PubChem AID 2334; type: functional
Nucleotide-binding oligomerization domain-containing protein 2, sequence (Q9HC29 whole entry, the tested form may be a part): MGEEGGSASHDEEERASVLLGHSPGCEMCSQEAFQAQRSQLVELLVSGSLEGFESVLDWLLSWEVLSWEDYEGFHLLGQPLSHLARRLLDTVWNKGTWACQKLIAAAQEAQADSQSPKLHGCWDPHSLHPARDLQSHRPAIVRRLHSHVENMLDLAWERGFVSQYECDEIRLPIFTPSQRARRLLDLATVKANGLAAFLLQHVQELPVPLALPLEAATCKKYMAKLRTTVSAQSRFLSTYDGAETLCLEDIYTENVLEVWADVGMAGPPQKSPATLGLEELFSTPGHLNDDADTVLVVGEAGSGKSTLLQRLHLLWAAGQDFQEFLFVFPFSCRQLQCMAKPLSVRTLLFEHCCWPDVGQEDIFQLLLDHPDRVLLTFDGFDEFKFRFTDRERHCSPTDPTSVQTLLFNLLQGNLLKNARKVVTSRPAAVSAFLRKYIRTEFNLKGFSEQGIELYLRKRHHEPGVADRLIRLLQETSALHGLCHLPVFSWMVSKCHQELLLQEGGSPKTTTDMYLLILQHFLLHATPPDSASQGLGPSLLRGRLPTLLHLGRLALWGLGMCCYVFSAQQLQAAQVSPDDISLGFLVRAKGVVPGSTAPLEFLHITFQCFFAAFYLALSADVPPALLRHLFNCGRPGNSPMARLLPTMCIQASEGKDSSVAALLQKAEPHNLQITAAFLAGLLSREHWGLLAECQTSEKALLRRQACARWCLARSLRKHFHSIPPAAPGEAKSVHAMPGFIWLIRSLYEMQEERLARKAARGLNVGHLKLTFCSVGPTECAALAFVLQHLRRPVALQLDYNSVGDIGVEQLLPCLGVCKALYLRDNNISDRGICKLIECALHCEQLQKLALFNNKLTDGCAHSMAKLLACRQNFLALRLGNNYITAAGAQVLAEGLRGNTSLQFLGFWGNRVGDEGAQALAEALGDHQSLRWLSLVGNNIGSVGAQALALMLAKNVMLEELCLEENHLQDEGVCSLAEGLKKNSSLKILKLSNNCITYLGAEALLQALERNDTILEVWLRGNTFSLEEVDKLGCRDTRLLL

H9c2 = assay: cells; type: functional, cell-based; settings: Rattus norvegicus, H9c2, Myocardium;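 further: confirmatory concentration-response retest of ultra-high-throughput screening hits for modulation of myocardial damage; cell death induced by hydrogen peroxide oxidative stress; compound pretreatment for 60 min then peroxide exposure for 2 h; potency is for protecting the cells against peroxide damage rather than for killing them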
Streptokinase A = molecular target: T3, Streptokinase A (Streptococcus pyogenes serotype M1, UniProt P10520); assay: S. pyogenes streptokinase expression inhibitors, potency, dose response, plasminogen activation absorbance, OD405 (AID 1914); type: functional, Streptococcus pyogenes M1 GAS;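 further: secreted streptokinase activity via plasminogen activation per viability signal from cell pellet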
T3 sequence (P10520 whole entry): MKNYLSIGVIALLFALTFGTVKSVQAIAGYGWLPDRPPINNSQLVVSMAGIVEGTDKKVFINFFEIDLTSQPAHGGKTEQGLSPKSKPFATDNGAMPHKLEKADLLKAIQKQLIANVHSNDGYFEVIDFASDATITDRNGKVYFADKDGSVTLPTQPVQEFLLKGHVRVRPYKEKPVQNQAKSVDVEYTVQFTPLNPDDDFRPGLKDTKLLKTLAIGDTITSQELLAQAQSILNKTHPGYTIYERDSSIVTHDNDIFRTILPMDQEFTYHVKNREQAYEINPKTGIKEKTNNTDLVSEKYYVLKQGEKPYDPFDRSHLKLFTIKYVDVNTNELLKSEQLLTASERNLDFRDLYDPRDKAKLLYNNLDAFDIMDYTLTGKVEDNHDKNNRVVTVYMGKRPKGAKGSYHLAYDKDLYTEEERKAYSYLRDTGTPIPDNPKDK

Streptococcus = assay: Group A Streptococcus viability loss, dose response, counter-screen for streptokinase expression inhibitor project, luminescence, BacTiterGlo (AID 1915); type: functional, organism-based;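 further: potency for reduction of bacterial viability or growth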
[13] = molecular target: Nucleotide-binding oligomerization domain-containing protein 1 (Homo sapiens, UniProt Q9Y239); assay: NOD1 signaling inhibitors, SAR follow-up, revised (AID 2333); type: functional
[14] = molecular target: Cystic fibrosis transmembrane conductance regulator/Golgi-associated PDZ and coiled-coil motif-containing protein (Homo sapiens, UniProt P13569+Q9HD26); assay: CAL PDZ peptide-binding inhibitors, dose response, biochemical, fluorescence polarization, Cerulean-tagged CAL PDZ, cherry-picks (AID 504773)
Cystic fibrosis transmembrane conductance regulator/Golgi-associated PDZ and coiled-coil motif-containing protein, sequence (P13569 whole entry, other chains not shown): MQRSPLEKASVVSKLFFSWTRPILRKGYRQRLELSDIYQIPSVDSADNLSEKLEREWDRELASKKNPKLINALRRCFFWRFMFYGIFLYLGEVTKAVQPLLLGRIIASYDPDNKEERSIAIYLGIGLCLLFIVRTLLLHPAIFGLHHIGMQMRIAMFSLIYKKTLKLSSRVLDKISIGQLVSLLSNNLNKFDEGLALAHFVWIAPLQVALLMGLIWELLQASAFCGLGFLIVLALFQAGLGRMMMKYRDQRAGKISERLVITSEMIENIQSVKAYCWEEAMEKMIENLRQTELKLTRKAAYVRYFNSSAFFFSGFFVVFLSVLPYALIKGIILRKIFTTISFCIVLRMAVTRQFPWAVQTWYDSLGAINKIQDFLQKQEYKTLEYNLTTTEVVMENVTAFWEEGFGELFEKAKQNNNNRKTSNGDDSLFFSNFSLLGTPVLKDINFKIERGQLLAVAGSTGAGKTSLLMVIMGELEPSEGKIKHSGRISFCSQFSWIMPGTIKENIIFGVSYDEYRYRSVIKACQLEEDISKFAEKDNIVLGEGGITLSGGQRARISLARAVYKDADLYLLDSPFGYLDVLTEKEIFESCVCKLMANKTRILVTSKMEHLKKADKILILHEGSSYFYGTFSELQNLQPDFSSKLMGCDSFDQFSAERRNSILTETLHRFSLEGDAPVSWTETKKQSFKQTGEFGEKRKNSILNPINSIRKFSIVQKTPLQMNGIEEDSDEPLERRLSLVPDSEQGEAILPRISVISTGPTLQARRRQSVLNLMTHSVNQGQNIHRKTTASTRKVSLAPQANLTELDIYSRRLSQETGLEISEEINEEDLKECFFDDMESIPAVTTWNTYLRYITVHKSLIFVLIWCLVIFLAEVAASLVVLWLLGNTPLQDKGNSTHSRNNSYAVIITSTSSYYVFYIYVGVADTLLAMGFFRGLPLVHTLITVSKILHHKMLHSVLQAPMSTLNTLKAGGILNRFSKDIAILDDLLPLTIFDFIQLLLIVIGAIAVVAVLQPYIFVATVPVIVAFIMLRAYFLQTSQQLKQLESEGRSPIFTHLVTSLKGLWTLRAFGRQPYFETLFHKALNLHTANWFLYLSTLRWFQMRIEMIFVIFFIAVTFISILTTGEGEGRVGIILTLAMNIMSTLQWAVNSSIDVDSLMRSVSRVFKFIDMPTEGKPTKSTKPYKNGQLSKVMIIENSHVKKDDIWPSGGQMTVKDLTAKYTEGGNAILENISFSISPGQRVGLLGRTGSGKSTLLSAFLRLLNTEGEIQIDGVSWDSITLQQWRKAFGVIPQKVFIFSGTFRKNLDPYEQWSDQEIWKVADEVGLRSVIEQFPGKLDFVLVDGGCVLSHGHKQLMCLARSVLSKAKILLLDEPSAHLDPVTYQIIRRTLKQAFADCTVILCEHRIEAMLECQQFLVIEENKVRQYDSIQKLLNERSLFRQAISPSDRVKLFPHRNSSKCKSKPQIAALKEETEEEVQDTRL

N#Cc1c(Br)n(C2OC(CO)C(O)C2O)c2ncnc(N)c12 (centres undefined)
EC50 [1]: 0.482 µM (active)
EC50 [2]: > 91.1 µM (inactive)
IC50 (HEK293 [3]): > 67.5 µM (inactive)
EC50 (Mu-type opioid receptor): 92.4 µM (inactive)
EC50 [4]: > 67.5 µM (inactive)
IC50 [5]: > 67.5 µM (inactive)
AC50 [6]: 184 µM (active)
EC50 [7]: > 91.1 µM (inactive)
AC50 [8]: 2.09 µM (active)

O=C(/C=C/c1ccccc1F)c1cccc([N+](=O)[O-])c1
EC50 [9]: 15.1 µM (active)

O=C(Nc1nc2ccccc2n1Cc1ccccc1)c1ccco1
IC50 (Tumor necrosis factor): > 20 µM (inactive)
EC50 [10]: 3.48 µM (active)
IC50 (HEK293 [11]): > 20 µM (inactive)
IC50 [12]: > 20 µM (inactive)
IC50 (H9c2): > 79 µM (inactive)
EC50 (Streptokinase A): > 150 µM (not active)
EC50 (Streptococcus): > 150 µM (not active)
IC50 [13]: > 20 µM (inactive)

COC(=O)[C@H]1[C@H]2C[C@@H]3c4[nH]c5cc(OC)ccc5c4CCN3C[C@H]2C[C@@H](OC(=O)/C=C/c2cc(OC)c(OC)c(OC)c2)[C@@H]1OC [RESCINNAMINE]
AC50 [14]: 142 µM (active)
